Values of other authors in publication PMC8781256, “The Influence of Fed State Lipolysis Inhibition on the Intraluminal Behaviour and Absorption of Fenofibrate from a Lipid-Based Formulation” (Pharmaceutics, 2022).

Tests used:
[1] = test system: human pancreatic lipase (HPL); parameters: method as in PMID 11408251; conditions: after intake of solid and liquid meals
[2] = parameters: method as in PMID 8626884; conditions: acts locally in the GI tract
[3] = test system: human gastric lipase (HGL); parameters: method as in PMID 11408251; conditions: after intake of solid and liquid meals

SMILES | log P | HPL enzyme inhibition [1] | systemic uptake [2] | HGL enzyme inhibition [3]
CC(C)OC(=O)C(C)(C)Oc1ccc(C(=O)c2ccc(Cl)cc2)cc1 [fenofibrate] | 5.21 |  |  | 
CCCCCCCCCCC[C@@H](C[C@@H]1OC(=O)[C@H]1CCCCCC)OC(=O)[C@H](CC(C)C)NC=O [orlistat, tetrahydrolipstatin] |  | 51.2–82.6% | negligible | 46.6–91.4%
